According to the NIST ThermoML archive (doi:10.1021/je900596d):
± gives the expanded uncertainty stated by the source.

Settings: for mass density: Vibrating tube method

FC(F)=C(F)C(F)(F)F [hexafluoropropene]
Settings	mass density [kg/m3]	vapor or sublimation pressure [kPa]
348.16 K, 3450.8 kPa, Liquid	1027.09 ± 1.1	–
348.16 K, 3473.5 kPa, Liquid	1028.21 ± 1.1	–
348.16 K, 3495.4 kPa, Liquid	1029.31 ± 1.1	–
348.16 K, 3556 kPa, Liquid	1032.19 ± 1.1	–
348.16 K, 3620.1 kPa, Liquid	1035.16 ± 1.1	–
348.16 K, 3683.5 kPa, Liquid	1037.98 ± 1.1	–
348.16 K, 3748.1 kPa, Liquid	1040.81 ± 1.1	–
348.16 K, 3811.8 kPa, Liquid	1043.57 ± 1.1	–
348.16 K, 3875.5 kPa, Liquid	1046.1 ± 1.1	–
348.16 K, 4030.8 kPa, Liquid	1052.17 ± 1.1	–
348.16 K, 4092 kPa, Liquid	1054.62 ± 1.1	–
348.16 K, 4154 kPa, Liquid	1057.08 ± 1.1	–
348.16 K, 4217.2 kPa, Liquid	1059.37 ± 1.1	–
348.16 K, 4278.7 kPa, Liquid	1061.59 ± 1.1	–
348.16 K, 4339.9 kPa, Liquid	1063.83 ± 1.1	–
348.16 K, 4402.1 kPa, Liquid	1065.77 ± 1.1	–
348.16 K, 4464.2 kPa, Liquid	1067.89 ± 1.1	–
348.16 K, 4526 kPa, Liquid	1070.05 ± 1.1	–
348.16 K, 4587.8 kPa, Liquid	1072.01 ± 1.1	–
348.16 K, 4650.2 kPa, Liquid	1074.03 ± 1.1	–
348.16 K, 4713.9 kPa, Liquid	1075.88 ± 1.1	–
348.16 K, 4776 kPa, Liquid	1077.88 ± 1.1	–
348.16 K, 4837.4 kPa, Liquid	1079.66 ± 1.1	–
348.16 K, 4898.5 kPa, Liquid	1081.71 ± 1.1	–
348.16 K, 4959.8 kPa, Liquid	1083.32 ± 1.1	–
348.16 K, 5022.6 kPa, Liquid	1085.31 ± 1.1	–
348.16 K, 5083.3 kPa, Liquid	1086.88 ± 1.1	–
348.16 K, 5144.8 kPa, Liquid	1088.55 ± 1.1	–
348.16 K, 5206 kPa, Liquid	1090.21 ± 1.1	–
348.16 K, 5267.2 kPa, Liquid	1091.82 ± 1.1	–
348.16 K, 5329.1 kPa, Liquid	1093.58 ± 1.1	–
348.16 K, 5389.3 kPa, Liquid	1095.16 ± 1.1	–
348.16 K, 5451.8 kPa, Liquid	1096.85 ± 1.1	–
348.16 K, 5513.3 kPa, Liquid	1098.5 ± 1.1	–
348.16 K, 5576.7 kPa, Liquid	1100.15 ± 1.1	–
348.16 K, 5638.9 kPa, Liquid	1101.65 ± 1.1	–
348.16 K, 5701.8 kPa, Liquid	1103.22 ± 1.1	–
348.16 K, 5762.2 kPa, Liquid	1104.69 ± 1.1	–
348.16 K, 5825.1 kPa, Liquid	1106.21 ± 1.1	–
348.16 K, 5886.9 kPa, Liquid	1107.77 ± 1.1	–
348.16 K, 5948.2 kPa, Liquid	1109.1 ± 1.1	–
348.16 K, 6012.5 kPa, Liquid	1110.68 ± 1.1	–
348.16 K, 6074.1 kPa, Liquid	1112.14 ± 1.1	–
348.16 K, 6135.8 kPa, Liquid	1113.56 ± 1.2	–
348.16 K, 6199.8 kPa, Liquid	1114.99 ± 1.2	–
348.16 K, 6262.2 kPa, Liquid	1116.4 ± 1.1	–
348.16 K, 6326.8 kPa, Liquid	1117.78 ± 1.2	–
348.16 K, 6392.4 kPa, Liquid	1119.12 ± 1.2	–
348.16 K, 6456 kPa, Liquid	1120.57 ± 1.2	–
348.16 K, 6517.7 kPa, Liquid	1121.84 ± 1.2	–
348.16 K, 6581 kPa, Liquid	1123.2 ± 1.2	–
348.16 K, 6643.4 kPa, Liquid	1124.53 ± 1.2	–
348.16 K, 6706.3 kPa, Liquid	1125.82 ± 1.2	–
348.16 K, 6767.7 kPa, Liquid	1127.07 ± 1.2	–
348.16 K, 6830.9 kPa, Liquid	1128.32 ± 1.2	–
348.16 K, 6893 kPa, Liquid	1129.63 ± 1.2	–
348.16 K, 6955.9 kPa, Liquid	1130.87 ± 1.2	–
348.16 K, 7017.5 kPa, Liquid	1132.05 ± 1.2	–
348.16 K, 7142.8 kPa, Liquid	1134.61 ± 1.2	–
348.16 K, 7205.4 kPa, Liquid	1135.79 ± 1.2	–
348.16 K, 7269.5 kPa, Liquid	1136.95 ± 1.2	–
348.16 K, 7332.4 kPa, Liquid	1138.09 ± 1.2	–
348.16 K, 7396.2 kPa, Liquid	1139.31 ± 1.2	–
348.16 K, 7458.5 kPa, Liquid	1140.53 ± 1.2	–
348.16 K, 7521.9 kPa, Liquid	1141.64 ± 1.2	–
348.16 K, 7584.8 kPa, Liquid	1142.73 ± 1.2	–
348.16 K, 7646.8 kPa, Liquid	1143.93 ± 1.2	–
348.16 K, 7707.9 kPa, Liquid	1145.12 ± 1.2	–
348.16 K, 7771.4 kPa, Liquid	1146.25 ± 1.2	–
348.16 K, 7835.4 kPa, Liquid	1147.35 ± 1.2	–
348.16 K, 7897.7 kPa, Liquid	1148.36 ± 1.2	–
348.16 K, 7961.9 kPa, Liquid	1149.49 ± 1.2	–
348.16 K, 8025.7 kPa, Liquid	1150.51 ± 1.2	–
348.16 K, 8087.3 kPa, Liquid	1151.69 ± 1.2	–
348.16 K, 8149.7 kPa, Liquid	1152.67 ± 1.2	–
348.16 K, 8214.5 kPa, Liquid	1153.77 ± 1.2	–
348.16 K, 8278.5 kPa, Liquid	1154.85 ± 1.2	–
348.16 K, 8341.3 kPa, Liquid	1155.78 ± 1.2	–
348.16 K, 8406.3 kPa, Liquid	1157 ± 1.2	–
348.16 K, 8469.9 kPa, Liquid	1157.97 ± 1.2	–
348.16 K, 8531.4 kPa, Liquid	1158.94 ± 1.2	–
348.16 K, 8594.4 kPa, Liquid	1159.97 ± 1.2	–
348.16 K, 8659.7 kPa, Liquid	1160.84 ± 1.2	–
348.16 K, 8722.7 kPa, Liquid	1161.97 ± 1.2	–
348.16 K, 8786.5 kPa, Liquid	1163 ± 1.2	–
348.16 K, 8848.4 kPa, Liquid	1163.83 ± 1.2	–
348.16 K, 8911.7 kPa, Liquid	1164.85 ± 1.2	–
348.16 K, 8974.2 kPa, Liquid	1165.76 ± 1.2	–
348.16 K, 9039.8 kPa, Liquid	1166.77 ± 1.2	–
348.16 K, 9105.6 kPa, Liquid	1167.83 ± 1.2	–
348.16 K, 9170.3 kPa, Liquid	1168.8 ± 1.2	–
348.16 K, 9233.7 kPa, Liquid	1169.7 ± 1.2	–
348.16 K, 9295.2 kPa, Liquid	1170.74 ± 1.2	–
348.16 K, 9362.9 kPa, Liquid	1171.78 ± 1.2	–
348.16 K, 9399.4 kPa, Liquid	1172.31 ± 1.2	–
348.16 K, 9466.9 kPa, Liquid	1173.32 ± 1.2	–
348.16 K, 9534.3 kPa, Liquid	1174.34 ± 1.2	–
348.16 K, 9571.4 kPa, Liquid	1174.89 ± 1.2	–
348.16 K, 9609.6 kPa, Liquid	1175.39 ± 1.2	–
348.16 K, 9656.8 kPa, Liquid	1176.01 ± 1.2	–
348.16 K, 9696 kPa, Liquid	1176.45 ± 1.2	–
348.16 K, 9739.9 kPa, Liquid	1177.06 ± 1.2	–
348.16 K, 9788.9 kPa, Liquid	1175.42 ± 1.2	–
348.16 K, 9833.1 kPa, Liquid	1175.9 ± 1.2	–
348.16 K, 9877.8 kPa, Liquid	1176.32 ± 1.2	–
348.16 K, 9944.3 kPa, Liquid	1179.73 ± 1.3	–
348.16 K, 10016 kPa, Liquid	1180.6 ± 1.2	–
348.22 K, Liquid, Closed cell (Static) method	–	2500.5 ± 4.4
353.12 K, 6.6 kPa, Fluid (supercritical or subcritical phases)	0.343 ± 0.031	–
353.12 K, 8.7 kPa, Fluid (supercritical or subcritical phases)	0.497 ± 0.031	–
353.12 K, 11.7 kPa, Fluid (supercritical or subcritical phases)	0.619 ± 0.031	–
353.12 K, 14.3 kPa, Fluid (supercritical or subcritical phases)	0.737 ± 0.031	–
353.12 K, 16.6 kPa, Fluid (supercritical or subcritical phases)	0.793 ± 0.031	–
353.12 K, 24.1 kPa, Fluid (supercritical or subcritical phases)	1.232 ± 0.032	–
353.12 K, 26.7 kPa, Fluid (supercritical or subcritical phases)	1.395 ± 0.032	–
353.12 K, 28.8 kPa, Fluid (supercritical or subcritical phases)	1.442 ± 0.032	–
353.12 K, 32.7 kPa, Fluid (supercritical or subcritical phases)	1.694 ± 0.032	–
353.12 K, 35.6 kPa, Fluid (supercritical or subcritical phases)	1.827 ± 0.032	–
353.12 K, 38.2 kPa, Fluid (supercritical or subcritical phases)	1.904 ± 0.032	–
353.12 K, 101.9 kPa, Fluid (supercritical or subcritical phases)	5.291 ± 0.033	–
353.12 K, 111.4 kPa, Fluid (supercritical or subcritical phases)	5.735 ± 0.034	–
353.12 K, 120.9 kPa, Fluid (supercritical or subcritical phases)	6.245 ± 0.034	–
353.12 K, 129.7 kPa, Fluid (supercritical or subcritical phases)	6.695 ± 0.034	–
353.12 K, 140.7 kPa, Fluid (supercritical or subcritical phases)	7.318 ± 0.034	–
353.12 K, 151.2 kPa, Fluid (supercritical or subcritical phases)	7.845 ± 0.035	–
353.12 K, 160.5 kPa, Fluid (supercritical or subcritical phases)	8.339 ± 0.035	–
353.12 K, 169.9 kPa, Fluid (supercritical or subcritical phases)	8.914 ± 0.035	–
353.12 K, 180.3 kPa, Fluid (supercritical or subcritical phases)	9.389 ± 0.035	–
353.12 K, 189.6 kPa, Fluid (supercritical or subcritical phases)	9.904 ± 0.035	–
353.12 K, 199 kPa, Fluid (supercritical or subcritical phases)	10.374 ± 0.036	–
353.12 K, 209.3 kPa, Fluid (supercritical or subcritical phases)	11.01 ± 0.036	–
353.12 K, 220.4 kPa, Fluid (supercritical or subcritical phases)	11.538 ± 0.036	–
353.12 K, 230.8 kPa, Fluid (supercritical or subcritical phases)	12.133 ± 0.037	–
353.12 K, 242.1 kPa, Fluid (supercritical or subcritical phases)	12.723 ± 0.037	–
